Data: US11040028B2, “Penicinotam derivative, preparation method and use thereof” (OCEAN UNIVERSITY OF CHINA, priority 2017, dated 2021)

What was measured:
Assay type in all cases: cell-based
[1] = system: human hepatic stellate cells LX-2; assay: Anti-fibrosis activity test: inhibition of proliferation of human hepatic stellate cells LX-2 (CCK-8); settings: Homo sapiens, 48 h
Summary of the method: (§1)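 Seed 2×10^4 cells/mL; adhere 24 h, 37° C/5% CO2. Compounds, serial concentrations, triplicate, 48 h. CCK-8 2 h, A450. IR=(1−Ai/Ao)×100% vs blank; IC50 fitted. Pirfenidone as positive control.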

[2] = system: human fibrosarcoma cells HT-1080; assay: Anti-fibrosis activity test: inhibition of proliferation of human fibrosarcoma cells HT-1080 (CCK-8); settings: Homo sapiens, HT-1080, 48 h
Summary of the method: as §1

NF-κB = assay: Immunological activity test: inhibition of NF-κB activity; settings: initial concentration of 30 μM; a/b isomers given as first/second symbol; read-out: IC50 (μM), inhibitory activity against NF-κB
Summary of the method: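 Initial screen at 30 μM; parthenolide positive control. IC50s derived from follow-up analysis.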

BHK-21 cells = assay: Anti-fibrosis activity test: inhibition of BHK-21 cell proliferation (CCK-8); settings: Mesocricetus auratus, BHK-21, 48 h
Summary of the method: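 Each concentration was tested in triplicate on adhered BHK-21 cells for 48 h, with pirfenidone as reference. A 2 h CCK-8 incubation preceded absorbance reading at 450 nm, and IC50 was obtained from percent inhibition versus blank.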

[3] = system: human dermal fibroblasts CCC-ESF-1; assay: Anti-fibrosis activity test: inhibition of proliferation of human dermal fibroblasts CCC-ESF-1 (CCK-8); settings: Fibroblast
Summary of the method: as §1

[4] = system: cardiac fibroblast RAT-iCell-C002; assay: Anti-fibrosis activity test: inhibition of proliferation of cardiac fibroblast RAT-iCell-C002 (CCK-8); settings: Cardiac fibroblast, 48 h
Summary of the method: as §1

[5] = system: mouse macrophages (RAW264.7); assay: Lipopolysaccharide-induced NO secretion in macrophages (Griess); settings: Mus musculus, RAW264.7, 24 h, RAW264.7, LPS 1 μg/ml, a/b isomers given as first/second symbol, read-out: IC50 (μM), inhibition of lipopolysaccharide-induced NO secretion in macrophages
Summary of the method: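 LPS 1 μg/ml, 24 h, RAW264.7 (DMEM/10% FBS); cpds at varied concs. Supernatant NO by Griess, A548; % inhibition vs blank medium.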

[6] = system: human embryonic lung fibroblast IMR-90; assay: Anti-fibrosis activity test: inhibition of proliferation of human embryonic lung fibroblast IMR-90 (CCK-8)
Summary of the method: as §1

[7] = system: human lung fibroblasts HFL1; assay: Anti-fibrosis activity test: inhibition of proliferation of human lung fibroblasts HFL1 (CCK-8); settings: Homo sapiens, HFL1, 48 h
Summary of the method: as §1

[8] = human hepatic stellate cells LX-2, CCK-8, 48 hours
[9] = human fibrosarcoma cells HT-1080, CCK-8, 48 hours
[10] = CCK-8, 48 hours after administration
[11] = human dermal fibroblasts CCC-ESF-1, CCK-8, 48 hours
[12] = cardiac fibroblast RAT-iCell-C002, CCK-8, 48 hours
[13] = human embryonic lung fibroblast IMR-90, CCK-8, 48 hours
[14] = human lung fibroblasts HFL1, CCK-8, 48 hours
[15] = Homo sapiens, CCC-ESF-1 cells, 48 h, CCK-8
[16] = Homo sapiens, IMR-90 cells, 48 h, CCK-8

| SMILES | IC50 [1, 8] [mM] | IC50 [2, 9] [mM] | IC50 (NF-κB) [µM] | IC50 (BHK-21 cells; [10]) [mM] | IC50 [3, 11] [mM] | IC50 [4, 12] [mM] | IC50 [5] [µM] | IC50 [6, 13] [mM] | IC50 [7, 14] [mM] | IC50 ([1]; LX-2, 48 h, LX-2 cells, CCK-8) [mM] | IC50 ([2]; HT-1080 cells, 48 h, CCK-8) [mM] | IC50 (BHK-21 cells; 48 h, CCK-8) [mM] | IC50 [3, 15] [mM] | IC50 ([4]; RAT-iCell-C002 cells, CCK-8) [mM] | IC50 [6, 16] [mM] | IC50 ([7]; HFL1 cells, 48 h, CCK-8) [mM] |
| --- | --- | --- | --- | --- | --- | --- | --- | --- | --- | --- | --- | --- | --- | --- | --- | --- |
| O=C1c2c(nc3ccccc3c2OCc2ccccc2Cl)-c2cccn21 [Compound 600b, 9-((2-chlorobenzyl)oxy)-10H-pyrrolizino[1,2-b]quinolin-10-one] | 0.05 to 5 | 0.05 to 5 | 1 to 10 | 0.05 to 5 | 0.05 to 5 | 0.05 to 5 | 1 to 10 | 0.05 to 5 | 0.05 to 5 |  |  |  |  |  |  |  |
| O=C1c2c(nc3ccccc3c2OCc2cc(C(F)(F)F)ccc2Cl)-c2cccn21 [Compound 611b, 9-((2-chloro-5-(trifluoromethyl)benzyl)oxy)-10H-pyrrolizino[1,2-b]quinolin-10-one] | 0.05 to 5 | 0.05 to 5 | 1 to 10 | 0.05 to 5 | 0.05 to 5 | 0.05 to 5 | 10 to 50 | 0.05 to 5 | 0.05 to 5 |  |  |  |  |  |  |  |
| O=C1c2c(nc3ccccc3c2OCc2ccc(-c3ccccc3)cc2)-c2cccn21 [Compound 649b, 9-([1,1′-biphenyl]-4-ylmethoxy)-10H-pyrrolizino[1,2-b]quinolin-10-one] | 0.05 to 5 | 0.05 to 5 | 10 to 50 | 0.05 to 5 | 0.05 to 5 | 0.05 to 5 | 10 to 50 | 0.05 to 5 | 0.05 to 5 |  |  |  |  |  |  |  |
| O=C1c2c(n(Cc3ccccc3[N+](=O)[O-])c3ccccc3c2=O)-c2cccn21 [Compound 668a, 4-(2-Nitrobenzyl)-9H-pyrrolizino[1,2-b]quinoline-9,10(4H)-dione] |  |  | 0.1 to 1 |  |  |  | 1 to 10 |  |  | 0.05 to 5 | 0.05 to 5 | 0.05 to 5 | 0.05 to 5 | 0.05 to 5 | 0.05 to 5 | 0.05 to 5 |
| N#Cc1ccccc1-c1ccc(Cn2c3c(c(=O)c4ccccc42)C(=O)n2cccc2-3)cc1 [Compound 648a, 4′-((9,10-Dioxo-9H-pyrrolizino[1,2-b]quinolin-4(10H)-yl)methyl)-[1,1′-biphenyl]-2-carbonitrile] | 0.05 to 5 | 0.05 to 5 | 1 to 10 | 0.05 to 5 | 0.05 to 5 | 0.05 to 5 | 10 to 50 | 0.05 to 5 | 0.05 to 5 |  |  |  |  |  |  |  |
| O=C1c2c(n(Cc3ccc(I)cc3)c3ccccc3c2=O)-c2cccn21 [Compound 575a, 4-(4-Iodobenzyl)-9H-pyrrolizino[1,2-b]quinoline-9,10(4H)-dione] | 0.05 to 5 | 0.05 to 5 | 0.1 to 1 | < 0.05 | 0.05 to 5 | 0.05 to 5 | 1 to 10 | 0.05 to 5 | 0.05 to 5 |  |  |  |  |  |  |  |
| O=C1c2c([nH]c3c(O)cccc3c2=O)-c2cccn21 [Compound 445a, 5-Hydroxy-9H-pyrrolizino[1,2-b]quinoline-9,10(4H)-dione] | 0.05 to 5 | 0.05 to 5 | 1 to 10 | 0.05 to 5 | 0.05 to 5 | 0.05 to 5 | 1 to 10 | 0.05 to 5 | 0.05 to 5 |  |  |  |  |  |  |  |
| O=C1c2c(n(Cc3ccc(F)c(F)c3F)c3ccccc3c2=O)-c2cccn21 [Compound 584a, 4-(2,3,4-Trifluorobenzyl)-9H-pyrrolizino[1,2-b]quinoline-9,10(4H)-dione] | 0.05 to 5 | < 0.05 | 0.1 to 1 | < 0.05 | 0.05 to 5 | 0.05 to 5 | 1 to 10 | 0.05 to 5 | 0.05 to 5 |  |  |  |  |  |  |  |
| COc1ccc2c(=O)c3c([nH]c2c1)-c1cccn1C3=O [Compound 560a, 6-Methoxy-9H-pyrrolizino[1,2-b]quinoline-9,10(4H)-dione] | 0.05 to 5 | 0.05 to 5 | 1 to 10 | 0.05 to 5 | 0.05 to 5 | 0.05 to 5 | 10 to 50 | 0.05 to 5 | 0.05 to 5 |  |  |  |  |  |  |  |
| O=C1c2c(n(CCN3CCOCC3)c3ccccc3c2=O)-c2cccn21 [Compound 662a, 4-(2-Morpholinoethyl)-9H-pyrrolizino[1,2-b]quinoline-9,10(4H)-dione] | 0.05 to 5 | 0.05 to 5 | 0.1 to 1 | 0.05 to 5 | 0.05 to 5 | 0.05 to 5 | 1 to 10 | 0.05 to 5 | 0.05 to 5 |  |  |  |  |  |  |  |
| O=C1c2c(nc3ccccc3c2OCc2cccc(Cl)c2F)-c2cccn21 [Compound 582b, 9-((3-chloro-2-fluorobenzyl)oxy)-10H-pyrrolizino[1,2-b]quinolin-10-one] | 0.05 to 5 | 0.05 to 5 | 1 to 10 | 0.05 to 5 | 0.05 to 5 | 0.05 to 5 | 1 to 10 | 0.05 to 5 | 0.05 to 5 |  |  |  |  |  |  |  |
| O=C1c2c(n(Cc3ccccc3)c3ccccc3c2=O)-c2cccn21 [Compound 103a, 4-Benzyl-9H-pyrrolizino[1,2-b]quinoline-9,10(4H)-dione] | 0.05 to 5 | 0.05 to 5 | 1 to 10 | 0.05 to 5 | 0.05 to 5 | 0.05 to 5 | 0.1 to 1 | < 0.05 | 0.05 to 5 |  |  |  |  |  |  |  |
| O=C1c2c(n(Cc3ccc(F)c(F)c3)c3ccccc3c2=O)-c2cccn21 [Compound 601a, 4-(3,4-Difluorobenzyl)-9H-pyrrolizino[1,2-b]quinoline-9,10(4H)-dione] | 0.05 to 5 | 0.05 to 5 | 1 to 10 | 0.05 to 5 | 0.05 to 5 | 0.05 to 5 | 1 to 10 | 0.05 to 5 | 0.05 to 5 |  |  |  |  |  |  |  |
| COc1c2c(nc3cc(N4CCNCC4)ccc13)-c1cccn1C2=O [Compound 328b, 9-methoxy-6-(piperazin-1-yl)-10H-pyrrolizino[1,2-b]quinolin-10-one] | 0.05 to 5 | 0.05 to 5 | 1 to 10 | 0.05 to 5 | 0.05 to 5 | 0.05 to 5 | 1 to 10 | 0.05 to 5 | 0.05 to 5 |  |  |  |  |  |  |  |
| O=C1c2c(nc3ccccc3c2OCc2ccccc2C(F)(F)F)-c2cccn21 [Compound 581b, 9-((2-(trifluoromethyl)benzyl)oxy)-10H-pyrrolizino[1,2-b]quinolin-10-one] | 0.05 to 5 | 0.05 to 5 | 1 to 10 | 0.05 to 5 | 0.05 to 5 | 0.05 to 5 | 1 to 10 | 0.05 to 5 | 0.05 to 5 |  |  |  |  |  |  |  |
| O=C1c2c(nc3ccccc3c2OCc2cccc(I)c2)-c2cccn21 [Compound 608b, 9-((3-iodobenzyl)oxy)-10H-pyrrolizino[1,2-b]quinolin-10-one] | 0.05 to 5 | 0.05 to 5 | 1 to 10 | 0.05 to 5 | 0.05 to 5 | 0.05 to 5 | 1 to 10 | 0.05 to 5 | 0.05 to 5 |  |  |  |  |  |  |  |
| Cc1cccc2c(O)c3c(nc12)-c1cccn1C3=O [Compound 732b, 9-hydroxy-5-methyl-10H-pyrrolizino[1,2-b]quinolin-10-one] |  |  | 1 to 10 |  |  |  | 1 to 10 |  |  | 0.05 to 5 | 0.05 to 5 | 0.05 to 5 | 0.05 to 5 | 0.05 to 5 | 0.05 to 5 | 0.05 to 5 |
| O=C(COc1c2c(nc3ccccc13)-c1cccn1C2=O)c1ccc(-c2ccccc2)cc1 [Compound 50b, 9-(2-([1,1′-biphenyl]-4-yl)-2-oxoethoxy)-10H-pyrrolizino[1,2-b]quinolin-10-one] | 5 to 20 | 0.05 to 5 | 1 to 10 | 0.05 to 5 | < 0.05 | 5 to 20 | 1 to 10 | 5 to 20 | 0.05 to 5 |  |  |  |  |  |  |  |
| O=C1c2c([nH]c3cc(C(F)(F)F)ccc3c2=O)-c2cccn21 [Compound 536a, 6-(Trifluoromethyl)-9H-pyrrolizino[1,2-b]quinoline-9,10(4H)-dione] | 0.05 to 5 | 0.05 to 5 | 1 to 10 | 0.05 to 5 | 0.05 to 5 | 0.05 to 5 | 1 to 10 | 0.05 to 5 | 0.05 to 5 |  |  |  |  |  |  |  |
